Tests used:
Settings in all cases: 48 h
NOMO1 [1] = assay: cell viability relative to DMSO control; higher = less cytotoxic
Outline: (§1)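 Three leukemia lines were tested: NOMO1 and SEM at 500 cells/well and P12-Ichikawa at 1000 cells/well. Each was adapted for at least four passages in each medium and seeded in 5 μl in 1536-well plates, and library compounds in DMSO were pin-dosed from 47 μM to 0.79 nM in 11 threefold steps. After 48 h at 37°C, CellTiter-Glo One luminescence was read. Viability is a percentage relative to DMSO wells on each plate, with cell-free wells as background.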

P12-Ichikawa [2] = assay: as above
Outline: as §1

SEM cells [3] = assay: as above
Outline: as §1

NOMO1 [4] = assay: AUC of viability dose-response curve (% viability x log10 dose units); higher = less sensitive
Outline: (§2)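 Over 48 h at 37°C, leukemia cells in 1536-well plates (500 or 1000 cells/well), adapted to each medium, received library compounds in DMSO at 11 threefold doses from 47 μM to 0.79 nM. CellTiter-Glo One luminescence, normalised per plate to DMSO and cell-free wells, was fitted by a four-parameter log-logistic function of log10 dose. The area under the curve was then integrated by trapezoidal rule, after scaling curves above full viability and removing those that failed quality control.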

P12-Ichikawa [5] = assay: as above
Outline: as §2

SEM cells [6] = assay: as above
Outline: as §2

OCC(O)C(O)C(O)CO (stereo unspecified)
cell viability [%]
Settings	NOMO1 [1]	P12-Ichikawa [2]	SEM cells [3]
HPLM + 10% dialyzed FBS, 0.000781 µM	98.8	95.6	85.4
HPLM + 10% dialyzed FBS, 0.00234 µM	88.8	102	83.7
HPLM + 10% dialyzed FBS, 0.00702 µM	87.7	97.8	98.2
HPLM + 10% dialyzed FBS, 0.0211 µM	104	99.8	101
HPLM + 10% dialyzed FBS, 0.0632 µM	81.7	98.4	103
HPLM + 10% dialyzed FBS, 0.19 µM	92.4	94.3	102
HPLM + 10% dialyzed FBS, 0.569 µM	99	103	73.8
HPLM + 10% dialyzed FBS, 1.71 µM	86.3	92.3	94.7
HPLM + 10% dialyzed FBS, 5.12 µM	96.7	88.1	91.6
HPLM + 10% dialyzed FBS, 15.4 µM	70.2	88.7	37.5
HPLM + 10% dialyzed FBS, 46.1 µM	80	87.7	88.9
RPMI 5 mM glucose + 10% FBS, 0.000781 µM	84	83.8	89
RPMI 5 mM glucose + 10% FBS, 0.00234 µM	99.3	96	91.1
RPMI 5 mM glucose + 10% FBS, 0.00702 µM	92.6	95.3	92.2
RPMI 5 mM glucose + 10% FBS, 0.0211 µM	84.4	95.4	95.9
RPMI 5 mM glucose + 10% FBS, 0.0632 µM	89.9	91.1	109
RPMI 5 mM glucose + 10% FBS, 0.19 µM	87.7	92.3	102
RPMI 5 mM glucose + 10% FBS, 0.569 µM	84.9	99	80.2
RPMI 5 mM glucose + 10% FBS, 1.71 µM	85.8	87.1	103
RPMI 5 mM glucose + 10% FBS, 5.12 µM	82	86.3	97.8
RPMI 5 mM glucose + 10% FBS, 15.4 µM	82.1	77.8	29.8
RPMI 5 mM glucose + 10% FBS, 46.1 µM	80	89.1	86.4
RPMI 5 mM glucose + 10% dialyzed FBS, 0.000781 µM	77.9	87.2	103
RPMI 5 mM glucose + 10% dialyzed FBS, 0.00234 µM	86.8	89.9	105
RPMI 5 mM glucose + 10% dialyzed FBS, 0.00702 µM	112	95.3	102
RPMI 5 mM glucose + 10% dialyzed FBS, 0.0211 µM	96.2	89.8	101
RPMI 5 mM glucose + 10% dialyzed FBS, 0.0632 µM	106	97.2	88.6
RPMI 5 mM glucose + 10% dialyzed FBS, 0.19 µM	106	89.9	89.1
RPMI 5 mM glucose + 10% dialyzed FBS, 0.569 µM	103	93.7	64.6
RPMI 5 mM glucose + 10% dialyzed FBS, 1.71 µM	84.9	85.4	91.5
RPMI 5 mM glucose + 10% dialyzed FBS, 5.12 µM	89	88.3	109
RPMI 5 mM glucose + 10% dialyzed FBS, 15.4 µM	72.5	79.2	30.3
RPMI 5 mM glucose + 10% dialyzed FBS, 46.1 µM	94.6	91.8	93

AUC of viability dose-response curve
Settings	NOMO1 [4]	P12-Ichikawa [5]	SEM cells [6]
HPLM + 10% dialyzed FBS	430	455	421
RPMI 5 mM glucose + 10% FBS	414	432	429
RPMI 5 mM glucose + 10% dialyzed FBS	447	429	402

CC(C)OC(=O)[C@H](C)N[P@](=O)(OC[C@H]1O[C@@H](N2\C=C/C(=O)NC2=O)[C@](C)(F)[C@@H]1O)OC3=CC=CC=C3
cell viability [%]
Settings	NOMO1 [1]	P12-Ichikawa [2]	SEM cells [3]
HPLM + 10% dialyzed FBS, 0.000781 µM	115	104	105
HPLM + 10% dialyzed FBS, 0.00234 µM	125	111	111
HPLM + 10% dialyzed FBS, 0.00702 µM	119	117	122
HPLM + 10% dialyzed FBS, 0.0211 µM	122	110	120
HPLM + 10% dialyzed FBS, 0.0632 µM	127	102	99.4
HPLM + 10% dialyzed FBS, 0.19 µM	131	108	131
HPLM + 10% dialyzed FBS, 0.569 µM	87.5	94.3	106
HPLM + 10% dialyzed FBS, 1.71 µM	91	41.5	98.4
HPLM + 10% dialyzed FBS, 5.12 µM	40.5	8.75	57.7
HPLM + 10% dialyzed FBS, 15.4 µM	34.3	6.42	17.6
HPLM + 10% dialyzed FBS, 46.1 µM	40.8	9.25	18.5
RPMI 5 mM glucose + 10% FBS, 0.000781 µM	101	113	125
RPMI 5 mM glucose + 10% FBS, 0.00234 µM	99.8	99	120
RPMI 5 mM glucose + 10% FBS, 0.00702 µM	116	124	130
RPMI 5 mM glucose + 10% FBS, 0.0211 µM	98.4	109	122
RPMI 5 mM glucose + 10% FBS, 0.0632 µM	107	112	121
RPMI 5 mM glucose + 10% FBS, 0.19 µM	99.9	101	125
RPMI 5 mM glucose + 10% FBS, 0.569 µM	95.7	110	125
RPMI 5 mM glucose + 10% FBS, 1.71 µM	98	98.1	120
RPMI 5 mM glucose + 10% FBS, 5.12 µM	87.3	69.3	88.1
RPMI 5 mM glucose + 10% FBS, 15.4 µM	17.5	7.18	14.3
RPMI 5 mM glucose + 10% FBS, 46.1 µM	19	5.81	9.48
RPMI 5 mM glucose + 10% dialyzed FBS, 0.000781 µM	101	96.2	101
RPMI 5 mM glucose + 10% dialyzed FBS, 0.00234 µM	110	105	109
RPMI 5 mM glucose + 10% dialyzed FBS, 0.00702 µM	115	106	106
RPMI 5 mM glucose + 10% dialyzed FBS, 0.0211 µM	130	103	120
RPMI 5 mM glucose + 10% dialyzed FBS, 0.0632 µM	114	102	111
RPMI 5 mM glucose + 10% dialyzed FBS, 0.19 µM	100	102	115
RPMI 5 mM glucose + 10% dialyzed FBS, 0.569 µM	99.8	101	107
RPMI 5 mM glucose + 10% dialyzed FBS, 1.71 µM	101	93.1	105
RPMI 5 mM glucose + 10% dialyzed FBS, 5.12 µM	81.3	49.8	86.8
RPMI 5 mM glucose + 10% dialyzed FBS, 15.4 µM	23.7	12	17.3
RPMI 5 mM glucose + 10% dialyzed FBS, 46.1 µM	24.1	11.3	9.7

AUC of viability dose-response curve
Settings	NOMO1 [4]	P12-Ichikawa [5]	SEM cells [6]
HPLM + 10% dialyzed FBS	372	331	387
RPMI 5 mM glucose + 10% FBS	412	391	399
RPMI 5 mM glucose + 10% dialyzed FBS	409	385	405

From the supplement of paper PMC11451515
